Assay results published in patent US20110053907A1, “SUBSTITUTED PYRIMIDINES AND TRIAZINES AND THEIR USE IN CANCER THERAPY” (Auckland UniServices Limited, priority 2008, published 2011).

Experiments:
PI3K isoforms = conditions: literature; cited from earlier work
p110α/p85 = p110α/p85 (Homo sapiens, UniProt P42336); experiment: Reversible inhibition of isolated enzyme, lipid kinase assay; assay type: biochemical; conditions: recombinant enzyme, 100 μM ATP, 1 hr, average of two experiments
Protocol: Compounds were evaluated for their ability to inhibit Class I PI 3-kinase enzymes p110δ/p85, p110α/p85, and p110β/p85. Reaction mixtures comprising 0.1 μg of a recombinant enzyme, 10 μg of L-α-phosphatidylinositol, and 2× Lipid Kinase Buffer (40 mM Tris-HCl, pH 7.4, 200 mM NaCl, 1 mM EDTA), which contains either DMSO only as a control or the test compound in DMSO (the final DMSO concentration is 1%), were activated by the addition of an ATP mix (5 mM MgCl2, 100 μM ATP, and 0.1 μL [γ^33P]ATP). Reactions were incubated at room temperature for 1 hr, and then stopped by the addition of 1M HCl. The lipids were then extracted using a two step procedure. Firstly, 200 μL of chloroform/methanol (1:1) was added, the biphasic reactions mixed and centrifuged briefly, and the inorganic phase was removed and discarded. Following this, 80 μL of methanol:HCl (1:1) was added and the same procedure followed. The organic phase (70 μL) was then transferred to a clean 1.6 mL tube and the reactions were dried using a Speedvac, with no heating, for 30 min. The reactions were spotted onto TLC plates (Merck Ltd) and developed for 1 hr in propanol-1:2 M acetic acid (13:7). The TLC plates were then dried at room temperature and quantified using a phosphorimager (StormImager, Amersham). Nine compound concentrations were used for each test compound to determine its IC50 value. Each experiment was performed twice and the average IC50 value is used herein.

p110α/p85, sequence (P42336 whole entry): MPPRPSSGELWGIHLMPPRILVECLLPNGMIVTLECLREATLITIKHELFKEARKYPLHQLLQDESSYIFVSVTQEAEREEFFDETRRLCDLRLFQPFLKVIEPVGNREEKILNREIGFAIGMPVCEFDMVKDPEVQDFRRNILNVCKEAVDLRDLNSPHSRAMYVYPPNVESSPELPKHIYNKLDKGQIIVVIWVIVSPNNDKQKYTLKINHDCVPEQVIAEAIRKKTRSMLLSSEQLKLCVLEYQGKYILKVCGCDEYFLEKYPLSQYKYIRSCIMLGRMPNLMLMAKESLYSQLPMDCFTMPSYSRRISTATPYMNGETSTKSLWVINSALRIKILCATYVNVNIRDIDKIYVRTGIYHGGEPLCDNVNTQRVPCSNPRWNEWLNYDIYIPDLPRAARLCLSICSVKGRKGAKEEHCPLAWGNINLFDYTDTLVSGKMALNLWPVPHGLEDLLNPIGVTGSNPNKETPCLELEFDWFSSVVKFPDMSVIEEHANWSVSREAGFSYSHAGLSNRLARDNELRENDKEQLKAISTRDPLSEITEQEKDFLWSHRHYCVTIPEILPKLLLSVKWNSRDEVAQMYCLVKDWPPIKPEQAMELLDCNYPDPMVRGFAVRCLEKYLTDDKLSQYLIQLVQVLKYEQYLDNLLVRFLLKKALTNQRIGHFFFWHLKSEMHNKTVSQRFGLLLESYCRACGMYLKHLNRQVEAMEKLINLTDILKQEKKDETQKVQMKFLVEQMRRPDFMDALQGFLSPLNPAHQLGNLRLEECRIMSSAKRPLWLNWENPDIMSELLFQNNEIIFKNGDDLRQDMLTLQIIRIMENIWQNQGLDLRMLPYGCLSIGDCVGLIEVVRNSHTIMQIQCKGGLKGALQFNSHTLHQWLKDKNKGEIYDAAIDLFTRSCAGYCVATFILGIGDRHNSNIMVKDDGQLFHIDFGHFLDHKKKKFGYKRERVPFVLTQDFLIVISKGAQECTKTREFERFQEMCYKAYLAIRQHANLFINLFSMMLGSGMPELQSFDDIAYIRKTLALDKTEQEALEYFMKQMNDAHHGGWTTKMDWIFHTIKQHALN
p110α/p85, sequence (P27986 whole entry partner): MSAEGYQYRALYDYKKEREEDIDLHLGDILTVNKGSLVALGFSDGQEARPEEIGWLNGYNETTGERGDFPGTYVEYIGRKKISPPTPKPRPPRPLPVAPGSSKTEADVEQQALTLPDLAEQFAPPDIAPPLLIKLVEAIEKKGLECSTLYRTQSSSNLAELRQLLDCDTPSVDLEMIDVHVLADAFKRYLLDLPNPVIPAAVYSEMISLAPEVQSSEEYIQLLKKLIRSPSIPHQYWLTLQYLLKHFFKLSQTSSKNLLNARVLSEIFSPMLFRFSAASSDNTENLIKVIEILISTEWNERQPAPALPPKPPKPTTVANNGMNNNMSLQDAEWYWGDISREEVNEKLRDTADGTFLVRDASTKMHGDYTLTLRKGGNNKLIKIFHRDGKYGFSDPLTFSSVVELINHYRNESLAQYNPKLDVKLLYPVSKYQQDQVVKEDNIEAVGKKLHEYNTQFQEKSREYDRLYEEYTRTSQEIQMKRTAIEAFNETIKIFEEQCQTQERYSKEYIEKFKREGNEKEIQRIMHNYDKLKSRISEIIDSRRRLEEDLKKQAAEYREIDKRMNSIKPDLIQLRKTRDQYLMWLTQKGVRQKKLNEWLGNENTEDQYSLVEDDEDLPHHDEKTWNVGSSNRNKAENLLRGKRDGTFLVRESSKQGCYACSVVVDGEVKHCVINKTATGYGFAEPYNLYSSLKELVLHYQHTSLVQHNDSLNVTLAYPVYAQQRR

SMILES | IC50 (p110α/p85) [nM] | melting point [°C] | PI3K isoform selectivity (PI3K isoforms) | mode of PI3K inhibition (reversible / irreversible) (PI3K isoforms)
O=C1NC(=O)/C(=C\c2ccc3nccnc3c2)S1 [AS605240] |  |  | γ-selective | 
Cc1ccccc1-n1c(Cn2cnc3c(N)ncnc32)nc2cccc(C)c2c1=O [IC87114] |  |  | δ-selective | 
COc1cccc2c1nc(C(F)F)n2-c1nc(N2CCOCC2)nc(N(C)C2CCN(S(=O)(=O)CCl)CC2)n1 [Example 21, N-{1-[(chloromethyl)sulfonyl]-4-piperidinyl}-4-[2-(difluoromethyl)-4-methoxy-1H-benzimidazol-1-yl]-N-methyl-6-(4-morpholinyl)-1,3,5-triazin-2-amine] | < 100 | 212 to 215 |  | 
COc1cccc2c1nc(C(F)F)n2-c1nc(N2CCOCC2)nc(N(C)C2CCN(C(=O)CCl)CC2)n1 [Example 19, N-[1-(chloroacetyl)-4-piperidinyl]-4-[2-(difluoromethyl)-4-methoxy-1H-benzimidazol-1-yl]-N-methyl-6-(4-morpholinyl)-1,3,5-triazin-2-amine] | < 100 | 211 to 213 |  | 
Oc1cccc(-c2nc(N3CCOCC3)c3oc4ncccc4c3n2)c1 [PI103] |  |  | slightly α-selective | 
COc1cccc2c1nc(C(F)F)n2-c1nc(N2CCOCC2)nc(N2CCC[C@H](NC(=O)CCl)C2)n1 [Example 34, 2-chloro-N-{(3S)-1-[4-[2-(difluoromethyl)-4-methoxy-1H-benzimidazol-1-yl]-6-(4-morpholinyl)-1,3,5-triazin-2-yl]piperidinyl}acetamide] | < 100 | 227 to 229 |  | 
Cc1cc(C(C)Nc2ccccc2)c2nc(N3CCOCC3)cc(=O)n2c1 (stereo not drawn) [TGX221] |  |  | β-selective | 
C=CCN(/C=C1/C(=O)O[C@H](COC)[C@@]2(C)C1=C(O)C(=O)C1=C2[C@H](OC(C)=O)C[C@]2(C)C(=O)CC[C@@H]12)CC=C [PX-866] |  |  | not selective for individual PI3K isoforms | irreversible activity
FC(F)c1nc2ccccc2n1-c1nc(N2CCOCC2)nc(N2CCOCC2)n1 [ZSTK474] |  |  | non-selective | 
COc1cccc2c1nc(C(F)F)n2-c1nc(N2CCOCC2)nc(N2CC[C@@H](NC(=O)CCl)C2)n1 [Example 25, 2-chloro-N-{(3R)-1-[4-[2-(difluoromethyl)-4-methoxy-1H-benzimidazol-1-yl]-6-(4-morpholinyl)-1,3,5-triazin-2-yl]pyrrolidinyl}acetamide] | < 100 | 270 to 275 |  | 
COc1cccc2c1nc(C(F)F)n2-c1nc(N[C@@H]2CCN(C(=O)CCl)C2)nc(N2CCOCC2)n1 [Example 29, N-[(3R)-1-(chloroacetyl)pyrrolidinyl]-4-[2-(difluoromethyl)-4-methoxy-1H-benzimidazol-1-yl]-6-(4-morpholinyl)-1,3,5-triazin-2-amine] | < 100 | 208 to 210 |  | 
COc1cccc2c1nc(C(F)F)n2-c1cc(N2CCOCC2)nc(N2CCN(S(=O)(=O)CCl)CC2)n1 [Example 16, 1-[2-{4-[(chloromethyl)sulfonyl]-1-piperazinyl}-6-(4-morpholinyl)-4-pyrimidinyl]-2-(difluoromethyl)-4-methoxy-1H-benzimidazole] | < 100 | 215 to 218 |  | 
COc1cccc2c1nc(C(F)F)n2-c1nc(N2CCOCC2)nc(N2CCN(S(=O)(=O)CBr)CC2)n1 [Example 12, 1-[4-{4-[(bromomethyl)sulfonyl]-1-piperazinyl}-6-(4-morpholinyl)-1,3,5-triazin-2-yl]-2-(difluoromethyl)-4-methoxy-1H-benzimidazole] | < 100 | 259 to 262 |  | 

More lines, main results first:

IC50 (p110α/p85) [nM] | melting point [°C] | SMILES | PI3K isoform selectivity (PI3K isoforms) | mode of PI3K inhibition (reversible / irreversible) (PI3K isoforms)
< 100 | 170 to 172 | COc1cccc2c1nc(C(F)F)n2-c1nc(OC2CCN(C(=O)CCl)CC2)nc(N2CCOCC2)n1 [Example 45, 1-[4-{[1-(chloroacetyl)-4-piperidinyl]oxy}-6-(4-morpholinyl)-1,3,5-triazin-2-yl]-2-(difluoromethyl)-4-methoxy-1H-benzimidazole] |  | 
100 to 1000 | 220 to 222 | COc1cccc2c1nc(C(F)F)n2-c1cc(N2CCN(S(=O)(=O)CCl)CC2)nc(N2CCOCC2)n1 [Example 15, 1-[6-{4-[(chloromethyl)sulfonyl]-1-piperazinyl}-2-(4-morpholinyl)-4-pyrimidinyl]-2-(difluoromethyl)-4-methoxy-1H-benzimidazole] |  | 
< 100 | 233 to 236 | COc1cccc2c1nc(C(F)F)n2-c1nc(N2CCOCC2)nc(N2CC(N(C)C(=O)CCl)C2)n1 [Example 42, 2-chloro-N-{1-[4-[2-(difluoromethyl)-4-methoxy-1H-benzimidazol-1-yl]-6-(4-morpholinyl)-1,3,5-triazin-2-yl]-3-azetidinyl}-N-methylacetamide] |  | 
< 100 | 252 to 254 | COc1cccc2c1nc(C(F)F)n2-c1nc(N2CCOCC2)nc(N2CCC(NC(=O)CCl)CC2)n1 [Example 22, 2-chloro-N-{1-[4-[2-(difluoromethyl)-4-methoxy-1H-benzimidazol-1-yl]-6-(4-morpholinyl)-1,3,5-triazin-2-yl]-4-piperidinyl}acetamide] |  | 
< 100 | 250 to 253 | COc1cccc2c1nc(C(F)F)n2-c1nc(N2CCOCC2)c2cnn(C3CCN(S(=O)(=O)CCl)CC3)c2n1 [Example 48, 1-{1-[(chloromethyl)sulfonyl]-4-piperidinyl}-6-[2-(difluoromethyl)-4-methoxy-1H-benzimidazol-1-yl]-4-(4-morpholinyl)-1H-pyrazolo[3,4-d]pyrimidine] |  | 
< 100 | 272 to 275 | COc1cccc2c1nc(C(F)F)n2-c1nc(N2CCOCC2)nc(N2CC(NC(=O)CCl)C2)n1 [Example 41, 2-chloro-N-{1-[4-[2-(difluoromethyl)-4-methoxy-1H-benzimidazol-1-yl]-6-(4-morpholinyl)-1,3,5-triazin-2-yl]-3-azetidinyl}acetamide] |  | 
< 100 | 241 to 243 | COc1cccc2c1nc(C(F)F)n2-c1nc(C2CCN(C(=O)CCl)CC2)nc(N2CCOCC2)n1 [Example 17, 1-[4-[1-(chloroacetyl)-4-piperidinyl]-6-(4-morpholinyl)-1,3,5-triazin-2-yl]-2-(difluoromethyl)-4-methoxy-1H-benzimidazole] |  | 
< 100 | 190 to 192 | COc1cccc2c1nc(C(F)F)n2-c1nc(N[C@@H]2CCCN(C(=O)CCl)C2)nc(N2CCOCC2)n1 [Example 37] |  | 
< 100 | 220 to 222 | COc1cccc2c1nc(C(F)F)n2-c1nc(N2CCOCC2)nc(N(C)C2CN(C(=O)CCl)C2)n1 [Example 44, N-[1-(chloroacetyl)-3-azetidinyl]-4-[2-(difluoromethyl)-4-methoxy-1H-benzimidazol-1-yl]-N-methyl-6-(4-morpholinyl)-1,3,5-triazin-2-amine] |  | 
< 100 | 201 to 203 | COc1cccc2c1nc(C(F)F)n2-c1nc(N2CCOCC2)nc(N2CCC[C@@H](N(C)C(=O)CCl)C2)n1 [Example 35, 2-chloro-N-{(3R)-1-[4-[2-(difluoromethyl)-4-methoxy-1H-benzimidazol-1-yl]-6-(4-morpholinyl)-1,3,5-triazin-2-yl]piperidinyl}-N-methylacetamide] |  | 
< 100 | 219 to 221 | COc1cccc2c1nc(C(F)F)n2-c1nc(N2CCOCC2)nc(N(C)[C@H]2CCN(C(=O)CCl)C2)n1 [Example 32, N-[(3S)-1-(chloroacetyl)pyrrolidinyl]-4-[2-(difluoromethyl)-4-methoxy-1H-benzimidazol-1-yl]-N-methyl-6-(4-morpholinyl)-1,3,5-triazin-2-amine] |  | 
< 100 | 206 to 208 | COc1cccc2c1nc(C(F)F)n2-c1nc(N2CCOCC2)nc(N2CCC(N(C)C(=O)CCl)CC2)n1 [Example 23, 2-chloro-N-{1-[4-[2-(difluoromethyl)-4-methoxy-1H-benzimidazol-1-yl]-6-(4-morpholinyl)-1,3,5-triazin-2-yl]-4-piperidinyl}-N-methylacetamide] |  | 
